In publication PMC4836297, “Leveraging family-specific signatures for AMP discovery and high-throughput annotation” (Scientific Reports, 2016):
Where two headings read alike, the source gives them in different places. Marks after values point to notes of the source that are not given here. Residues, ends and D or L forms follow the SMILES beside them.

Experiments:
[1] = test system: E. coli 25922 (NCIM 2931); assay type: cell-based, Escherichia coli; conditions: for MIC (*50% inhibition): starred value: 50% inhibition only
Protocol: (§1) Antimicrobial activity of the synthesized peptides was determined by broth microdilution assay and evaluated based on minimum inhibitory concentration (MIC). […] Gram negative microorganisms (Escherichia coli ATCC 8739, Escherichia coli ATCC 25922) were grown in Mueller-Hinton (MH) broth at 37 °C for 18h on a shaker to obtain an OD600nm of 0.8. Bacterial cultures were diluted in MH broth to obtain a cell density of 10^5–10^6 c.f.u/ml. Different concentrations of peptides, ranging from 1–100 μM were serially diluted in MH broth and inoculated with bacterial cultures in 1:1 ratio in sterile 96-well microtiter plates. The plates were incubated at 37 °C for 18h and antimicrobial activity was evaluated as MIC of the peptides by determining the absorbance at 600nm. The microorganisms were obtained from National Collection of Industrial Microorganisms (NCIM), Pune.

E. coli 8739 (NCIM 2065) = assay type: cell-based, Escherichia coli; conditions: for inhibition at 100 microM: 8739 (NCIM 2065, 18 h, 100 microM); for MIC (*50% inhibition): starred value: 50% inhibition only
Protocol: as §1

[2] = Escherichia coli ATCC 25922, MH broth, 37 °C 18h, absorbance at 600nm, average range, triplicates of three independent experiments
[3] = Escherichia coli ATCC 8739, MH broth, 37 °C 18h, absorbance at 600nm, average range, triplicates of three independent experiments
[4] = Escherichia coli ATCC 25922, complete growth inhibition, MH broth, 10^5–10^6 c.f.u/ml, peptides 1–100 μM, 37 °C 18h, absorbance at 600nm, average range, triplicates of three independent experiments
[5] = Escherichia coli ATCC 8739, complete growth inhibition, MH broth, 10^5–10^6 c.f.u/ml, peptides 1–100 μM, 37 °C 18h, absorbance at 600nm, average range, triplicates of three independent experiments

Molecule | antimicrobial activity (in words) ([1]; Escherichia coli ATCC 25922) | MIC (E. coli 8739 (NCIM 2065); 8739 (NCIM 2065, 18 h)) | antimicrobial activity (in words) (E. coli 8739 (NCIM 2065); Escherichia coli ATCC 8739) | MIC (*50% inhibition) [1, 2] | inhibition at 100 microM (E. coli 8739 (NCIM 2065)) | MIC (*50% inhibition) (E. coli 8739 (NCIM 2065); [3]) | MIC [1, 4] | MIC (E. coli 8739 (NCIM 2065); [5]) | other results
CC[C@H](C)[C@H](NC(=O)CNC(=O)[C@H](CC(=O)O)NC(=O)[C@H](CCCNC(=N)N)NC(=O)[C@@H](NC(=O)[C@H](CC(N)=O)NC(=O)[C@H](CCCNC(=N)N)NC(=O)CNC(=O)[C@@H](NC(=O)[C@H](CCCCN)NC(=O)[C@H](CCC(=O)O)NC(=O)[C@@H](NC(=O)[C@H](CCCCN)NC(=O)[C@H](CCCCN)NC(=O)[C@H](Cc1ccccc1)NC(=O)[C@@H](NC(=O)[C@H](CCCCN)NC(C)=O)[C@@H](C)CC)[C@@H](C)CC)C(C)C)C(C)C)C(=O)N[C@H](C(=O)N[C@@H](CCCCN)C(=O)N[C@@H](C)C(=O)NCC(=O)N1CCC[C@H]1C(=O)N[C@@H](C)C(=O)N[C@H](C(=O)N[C@@H](C)C(=O)N[C@H](C(=O)N[C@H](C(=O)N[C@@H](CCC(=O)O)C(=O)N[C@@H](CCC(N)=O)C(=O)N[C@@H](C)C(N)=O)C(C)C)C(C)C)C(C)C)[C@@H](C)CC [CecH] (Ac-KIFKKIEKVGRNVRDGIIKAGPAVAVVEQA-NH2) | activity similar to that of gentamycin | 3.125 to 6.25 µM | activity similar to that of gentamycin | – | – | – | – | – | MIC ([1]; 25922 (NCIM 2931, 18 h)): 6.25 to 12.5 µM
CSCC[C@H](NC(=O)[C@H](CCCNC(=N)N)NC(=O)[C@H](CCC(N)=O)NC(=O)[C@H](Cc1c[nH]c2ccccc12)NC(=O)[C@H](CO)NC(=O)[C@H](CCC(N)=O)NC(=O)[C@H](CCCCN)NC(C)=O)C(=O)N[C@@H](CCCNC(=N)N)C(=O)N[C@@H](CCCCN)C(=O)N[C@@H](CC(C)C)C(=O)N[C@@H](C)C(=O)N[C@@H](CC(C)C)C(=O)N[C@@H](CCCCN)C(=O)N[C@@H](CCCNC(=N)N)C(N)=O [LactP1] (Ac-KQSWQRMRKLALKR-NH2) | – | – | – | 50–100* microM | 50% | 50–100* microM | – | – | inhibition at 100 microM ([1]; 25922 (NCIM 2931, 18 h, 100 microM)): 50%
CSCC[C@H](NC(=O)[C@H](CCCNC(=N)N)NC(=O)[C@H](CCC(N)=O)NC(=O)[C@H](Cc1c[nH]c2ccccc12)NC(=O)[C@H](CO)NC(=O)[C@H](CCC(N)=O)NC(=O)[C@H](CCCCN)NC(=O)[C@H](CC(C)C)NC(=O)[C@H](CCC(=O)O)NC(=O)[C@H](CCC(=O)O)NC(=O)[C@H](CCCNC(=N)N)NC(=O)[C@H](CCCNC(=N)N)NC(=O)[C@H](CCCNC(=N)N)NC(=O)[C@H](CCCNC(=N)N)NC(C)=O)C(=O)N[C@@H](CCCNC(=N)N)C(=O)N[C@@H](CCCCN)C(=O)N[C@@H](CC(C)C)C(=O)N[C@@H](C)C(=O)N[C@@H](CC(C)C)C(=O)N[C@@H](CCCCN)C(=O)N[C@@H](CCCNC(=N)N)C(N)=O [LactP2] (Ac-RRRREELKQSWQRMRKLALKR-NH2) | – | 50 to 100 µM | – | 50–100* microM | 100% | – | – | – | –
Gentamycin [reference compound] | – | – | – | – | – | – | 1.56 to 3.125 µM | 1.56 to 3.125 µM | –
PLSCRRKIGICVLIRCSGNMRQIGTCLGALVKCCR [DefH, 35-residue defensin family peptide retrieved using HMMs, Class II; N-acetylated, C-amidated] | – | – | – | – | – | 50–100* microM | NA (Did not show activity upto 100 microM) | – | –
WQRMRKL [LactP, N-acetylated, C-amidated] | lacks activity | – | lacks activity | – | – | – | NA (Did not show activity upto 100 microM) | NA (Did not show activity upto 100 microM) | –
